Measured values published in publication PMC6199744, “Development of Chemical Proteomics for the Folateome and Analysis of the Kinetoplastid Folateome” (ACS Infectious Diseases, 2018).
Where “and” joins values, the source holds several entries; their conditions need not be identical. Equal entries are not always repeated. Where two headings read alike, the source gives them in different places.

Test system: T. brucei lysate proteins
Assay type: binding, Trypanosoma brucei

## CCCCCCOc1cccc(Cc2cnc(N)nc2N)c1 [compound 2]
  fold change - vehicle control: 1 and 0.55 and 0.88 and 0.98 and 0.99
Protein RHS6A (CZT00028360.1)
  fold change - vehicle control: 0.94
Protein TB09.160.1250 HY[…], CONSERVED
  fold change - vehicle control: 0.96
Protein TB09.160.3670 RIBOSOMAL PROTEIN S6, PUTATIVE
  fold change - vehicle control: 0.84
Protein TB09.211.2630 60S RIBOSOMAL PROTEIN L23, PUTATIVE
  fold change - vehicle control: 1.12
Protein TB09.211.4513 KIN[…] PROTEIN KMP-11
  fold change - vehicle control: 0.9
Protein TB11.V4.0005 RIBONUCLEOSIDE-DIPHOSPHATE REDUCTASE SMALL CHAIN
  fold change - vehicle control: 0.86
Protein TB11.01.0870 R[…] A, 51KDA SUBUNIT, PUTATIVE
  fold change - vehicle control: 1.05
Protein TB11.01.2560 40S RIBOSOMAL PROTEIN SA, PUTATIVE
  fold change - vehicle control: 1.05
Protein TB11.01.4880 HY[…], CONSERVED
  fold change - vehicle control: 0.89
Protein TB11.01.7090 HY[…], CONSERVED
  fold change - vehicle control: 0.9
Protein TB11.02.2510 GUANINE NUCLEOTIDE-BINDING BETA SUBUNIT-LIKE PROTEIN
  fold change - vehicle control: 0.96
Protein TB11.02.4170 40S RIBOSOMAL PROTEIN S5, PUTATIVE
  fold change - vehicle control: 1.39
Protein TB11.03.0250 C[…]
  fold change - vehicle control: 1.72
Protein TB11.46.0009 HY[…], CONSERVED
  fold change - vehicle control: 1.02
Protein TB427TMP.01.0620 HY[…], CONSERVED
  fold change - vehicle control: 0.96
Protein TB427TMP.01.1475 40S RIBOSOMAL PROTEIN S27, PUTATIVE
  fold change - vehicle control: 1.03
Protein TB427TMP.01.4280 HY[…], CONSERVED
  fold change - vehicle control: 0.85
Protein TB427TMP.01.4650 HY[…], CONSERVED
  fold change - vehicle control: 1.21
Protein TB427TMP.01.4810 HY[…], CONSERVED
  fold change - vehicle control: 0.93
Protein TB427TMP.01.5680 HY[…], CONSERVED
  fold change - vehicle control: 0.97
Protein TB427TMP.01.8390 HY[…], CONSERVED
  fold change - vehicle control: 0.8
Protein TB427TMP.02.0230 HY[…], CONSERVED
  fold change - vehicle control: 1.22
Protein TB427TMP.02.0460 NUCLEOPORIN
  fold change - vehicle control: 0.88
Protein TB427TMP.02.1106 NUCLEOBASE/NUCLEOSIDE TRANSPORTER 8 1
  fold change - vehicle control: 1.35
Protein TB427TMP.160.2050 ENDO-BETA-N-ACETYLGLUCOSAMINIDASE, PUTATIVE
  fold change - vehicle control: 0.89
Protein TB427TMP.160.4310 GLUTAMATE DEHYDROGENASE
  fold change - vehicle control: 0.49
Protein TB427TMP.160.4450 40S RIBOSOMAL PROTEIN S3, PUTATIVE
  fold change - vehicle control: 1.06
Protein TB427TMP.160.4630 HY[…], CONSERVED
  fold change - vehicle control: 0.91
Protein TB427TMP.160.5200 HY[…], CONSERVED
  fold change - vehicle control: 0.86
Protein TB427TMP.160.5670 HY[…], CONSERVED
  fold change - vehicle control: 0.81
Protein TB427TMP.211.0930 POLYADENYLATE-BINDING PROTEIN 1
  fold change - vehicle control: 1.27
Protein TB427TMP.211.1750 MIT[…] PROTEIN, PUTATIVE
  fold change - vehicle control: 0.97
Protein TB427TMP.211.3510 ATP-DEPENDENT DEAD/H RNA HELICASE, PUTATIVE
  fold change - vehicle control: 0.96
Protein TB427TMP.211.4540 RNA-BINDING PROTEIN, PUTATIVE
  fold change - vehicle control: 0.6
Protein TB427TMP.244.2840 HY[…], CONSERVED
  fold change - vehicle control: 1
Protein TB427.01.1240 CYTIDINE TR[…], PUTATIVE
  fold change - vehicle control: 0.8
Protein TB427.01.2570 COATOMER BETA SUBUNIT
  fold change - vehicle control: 0.82
Protein TB427.01.3910 HY[…], CONSERVED
  fold change - vehicle control: 0.61
Protein TB427.02.450 RETRO[…] SPOT (RHS) PROTEIN, PUTATIVE
  fold change - vehicle control: 0.84
Protein TB427.04.3350 HY[…], CONSERVED
  fold change - vehicle control: 1.08
Protein TB427.04.3890 ATP-DEPENDENT RNA HELICASE, PUTATIVE
  fold change - vehicle control: 0.83
Protein TB427.04.4870 AMINO ACID TRANSPORTER, PUTATIVE
  fold change - vehicle control: 1.02
Protein TB427.04.750 50S RIBOSOMAL PROTEIN L7AE, PUTATIVE
  fold change - vehicle control: 0.95
Protein TB427.04.960 HY[…], CONSERVED
  fold change - vehicle control: 0.72
Protein TB427.05.1490 HY[…], CONSERVED
  fold change - vehicle control: 0.95
Protein TB427.05.1780 HY[…], CONSERVED
  fold change - vehicle control: 0.73
Protein TB427.05.3030 INTR[…] PROTEIN IFT122, PUTATIVE
  fold change - vehicle control: 0.96
Protein TB427.06.3110 PROTEIN KINASE, PUTATIVE (CRK11)
  fold change - vehicle control: 0.94
Protein TB427.06.5110 DAMAGE-SPECIFIC DNA BINDING PROTEIN, PUTATIVE
  fold change - vehicle control: 0.9
Protein TB427.07.2670 HY[…], CONSERVED
  fold change - vehicle control: 0.98
Protein TB427.07.3040 HY[…], CONSERVED
  fold change - vehicle control: 0.96
Protein TB427.07.3530 HY[…], CONSERVED
  fold change - vehicle control: 0.91
Protein TB427.07.4970 GLUTAMINE SYNTHETASE, PUTATIVE
  fold change - vehicle control: 0.92
Protein TB427.07.5560 GLUCOSAMINE-FRUCTOSE-6-PHOSPHATE AMINOTRANSFERASE, PUTATIVE
  fold change - vehicle control: 0.87
Protein TB427.07.5890 HY[…], CONSERVED
  fold change - vehicle control: 0.8
Protein TB427.07.7070 HY[…], CONSERVED
  fold change - vehicle control: 0.79
Protein TB427.07.7460 HY[…], CONSERVED
  fold change - vehicle control: 0.98
Protein TB427.08.1500 HY[…], CONSERVED
  fold change - vehicle control: 0.94
Protein TB427.08.1840 HY[…], CONSERVED
  fold change - vehicle control: 0.7
Protein TB427.08.1960 HY[…], CONSERVED
  fold change - vehicle control: 0.83
Protein TB427.08.2080 HY[…], CONSERVED
  fold change - vehicle control: 0.75
Protein TB427.08.3750 NUCLEOLAR PROTEIN, PUTATIVE
  fold change - vehicle control: 1.04
Protein TB427.08.6390 LYSOPHOSPHOLIPASE, PUTATIVE
  fold change - vehicle control: 0.97
Protein TB427.10.10610 PROTEIN TYROSINE PHOSPHATASE, PUTATIVE
  fold change - vehicle control: 0.94
Protein TB427.10.1100 60S RIBOSOMAL PROTEIN L9, PUTATIVE
  fold change - vehicle control: 1.08
Protein TB427.10.12740
  fold change - vehicle control: 0.97
Protein TB427.10.15720 […]-ATP-ASE SUBUNIT 9
  fold change - vehicle control: 0.81
Protein TB427.10.2440 METACASPASE MCA4
  fold change - vehicle control: 0.88
Protein TB427.10.2900 IMPORTIN BETA-1 SUBUNIT, PUTATIVE
  fold change - vehicle control: 0.94
Protein TB427.10.3470 HY[…], CONSERVED
  fold change - vehicle control: 0.79
Protein TB427.10.4110 60S RIBOSOMAL PROTEIN L30
  fold change - vehicle control: 0.93
Protein TB427.10.4610 […]-MANNOSE SYNTHASE, PUTATIVE
  fold change - vehicle control: 0.93
Protein TB427.10.5250 HY[…], CONSERVED
  fold change - vehicle control: 0.89
Protein TB427.10.5840 T[…] 1-BETA, PUTATIVE
  fold change - vehicle control: 0.85
Protein TB427.10.7410 SUCCINYL-COA LIGASE GDP-FORMING] BETA-CHAIN, PUTATIVE
  fold change - vehicle control: 0.76
Protein TB927.10.12960 RAS-RELATED PROTEIN RAB-5
  fold change - vehicle control: 1.03
Protein TB927.10.14800 PROTEIN KINASE, PUTATIVE
  fold change - vehicle control: 1.13
Protein TB927.10.2980 […]-ATPASE SUBUNIT 11
  fold change - vehicle control: 1.09
Protein TB927.10.3660 ASPARTATE AMINOTRANSFERASE
  fold change - vehicle control: 1.09
Protein TB927.10.4570 […] 2
  fold change - vehicle control: 0.79
Protein TB927.10.5140 PROTEIN KINASE, PUTATIVE
  fold change - vehicle control: 0.91
Protein TB927.10.6510 CHAPERONIN HSP60, MIT[…]
  fold change - vehicle control: 0.96
Protein TB927.3.1840 3-OXO-5-ALPHA-STEROID 4-DEHYDROGENASE, PUTATIVE
  fold change - vehicle control: 1.16
Protein TB927.3.3780 TRYPAREDOXIN
  fold change - vehicle control: 0.92
Protein TB927.3.740 HY[…], CONSERVED
  fold change - vehicle control: 0.95
Protein TB927.4.2740 HY[…], CONSERVED
  fold change - vehicle control: 0.85
Protein TB927.4.3590 T[…] 1-BETA, PUTATIVE
  fold change - vehicle control: 0.81
Protein TB927.6.4320 HY[…], CONSERVED
  fold change - vehicle control: 0.98
Protein TB927.7.2550 […] SUBUNIT 5
  fold change - vehicle control: 0.92
Protein TB927.7.2980 HY[…], CONSERVED
  fold change - vehicle control: 0.88
Protein TB927.7.5340 HY[…], CONSERVED
  fold change - vehicle control: 1.48
Protein TB927.7.7430 ATP SYNTHASE ALPHA CHAIN, MIT[…]
  fold change - vehicle control: 0.92
Protein TB927.8.1990 PEROXIDOXIN
  fold change - vehicle control: 1.04
Protein TB927.8.4720 AMINO ACID TRANSPORTER, PUTATIVE
  fold change - vehicle control: 1.06
